Values after ≈ are worked out from the molar mass of the structure shown. Read-outs that look alike come from different tables or passages of the source.
Tests used:
P. granulosum [1] = assay: Broth microdilution MIC; type: cell-based
[2] = Approximate solubility in solvents by aliquot addition; type: physicochemical; settings: ambient temperature
Description: Solubilities of the radezolid free base and radezolid HCl salt in various solvents were estimated and are shown in Tables 10 and 11, respectively, below. A weighed sample was treated with aliquots of test solvent at ambient temperature. Complete dissolution of the test material was determined by visual inspection. Solubility was estimated based on the total solvent used to provide complete dissolution. The actual solubility may be greater than the approximate solubility calculated because of the use of solvent aliquots that were too large or due to a slow rate of dissolution. […] If complete dissolution was achieved as a result of only one aliquot addition, the solubility is expressed as “greater than.” The approximate solubilities were rounded to the nearest whole number.

Enterococcus faecium = assay: MIC against ribosome-based resistance phenotypes; type: cell-based; settings: Enterococcus faecium A6349; VanA + Lin-R (G2576U); read-out: Minimum Inhibitory Concentration (MIC)
Source text: (§1) Furthermore, the antibiotic compounds can be assayed for anti-proliferative or anti-infective properties on a cellular level. For example, where the target organism is a microorganism, the activity of compounds of interest can be assayed by growing the microorganisms of interest in media either containing or lacking the compound. Growth inhibition can be indicative that the molecule could be acting as a protein synthesis inhibitor. […] For this purpose, a panel of bacterial strains can be assembled to include a variety of target pathogenic species, some containing resistance mechanisms that have been characterized. Use of such a panel of organisms permits the determination of structure-activity relationships not only in regards to potency and spectrum, but also with a view to obviating resistance mechanisms. The assays can be performed in microtiter trays according to conventional methodologies as published by The National Committee for Clinical Laboratory Standards (NCCLS) guidelines (NCCLS. M7-A5-Methods for Dilution Antimicrobial Susceptibility Tests for Bacteria That Grow Aerobically; Approved Standard-Fifth Edition. NCCLS Document M100-S12/M7 (ISBN 1-56238-394-9)).

Enterococcus faecalis = assay: MIC against ribosome-based resistance phenotypes; type: cell-based; settings: read-out: Minimum Inhibitory Concentration (MIC)
Source text: as §1, with “mechanisms.” for “mechanisms. The assays can be performed in microtiter trays according to conventional methodologies as published by The National Committee for Clinical Laboratory Standards (NCCLS) guidelines (NCCLS. M7-A5-Methods for Dilution Antimicrobial Susceptibility Tests for Bacteria That Grow Aerobically; Approved Standard-Fifth Edition. NCCLS Document M100-S12/M7 (ISBN 1-56238-394-9)).”

Staphylococcus aureus = assay: MIC against ribosome-based resistance phenotypes; type: cell-based; settings: read-out: Minimum Inhibitory Concentration (MIC)
Source text: as §1, with “mechanisms.” for “mechanisms. The assays can be performed in microtiter trays according to conventional methodologies as published by The National Committee for Clinical Laboratory Standards (NCCLS) guidelines (NCCLS. M7-A5-Methods for Dilution Antimicrobial Susceptibility Tests for Bacteria That Grow Aerobically; Approved Standard-Fifth Edition. NCCLS Document M100-S12/M7 (ISBN 1-56238-394-9)).”

F. magna [3] = assay: Broth microdilution MIC; type: cell-based; settings: Finegoldia magna, ATCC15794; F. magna ATCC 15794
B. thetaiotaomicron [4] = assay: microbe, parasite or virus in culture; type: cell-based; settings: Bacteroides thetaiotaomicron, ATCC29741; B. thetaiotaomicron ATCC 29741; read-out: MIC, agar dilution
S. aureus = assay: Broth microdilution MIC; type: cell-based; settings: Staphylococcus aureus, ATCC29213; S. aureus ATCC 29213
[5] = Long-term rat safety study; type: in vivo
Source text: There was 100% survival in all dose groups.

Legionella pneumophila = settings: cited from earlier work
Listeria monocytogenes = settings: cited from earlier work
P. granulosum [6] = assay: Agar dilution MIC (CLSI reference method); type: cell-based
P. acnes = assay: Agar dilution MIC (CLSI reference method); type: cell-based; settings: for MIC: Cutibacterium acnes
B. thetaiotaomicron [7] = assay: microbe, parasite or virus in culture; type: cell-based; settings: Bacteroides thetaiotaomicron, ATCC29741; B. thetaiotaomicron ATCC 29741; read-out: MIC, broth microdilution
[8] = type: physicochemical; settings: radezolid salt forms in HPLC grade water, ambient temperature; listed as Free base
B. fragilis = assay: Agar dilution MIC (CLSI reference method); type: cell-based; settings: Bacteroides fragilis, ATCC25285; B. fragilis ATCC 25285
all organisms = assay: Agar dilution MIC, range over the isolates tested; type: cell-based; settings: read-out: agar dilution MICs for all organisms
[9] = Radezolid levels in granuloma pouch and plasma; type: in vivo; settings: FIGS. 3-4
[10] = tested on: mammalian cells (e.g., defense cells, macrophages, lung cells, and non-phagocytic cells); settings: cited from earlier work
F. magna [11] = assay: Agar dilution MIC (CLSI reference method); type: cell-based
G. vaginalis = assay: Broth microdilution MIC; type: cell-based; settings: for MIC: Gardnerella vaginalis

Question: For `CC(=O)NC[C@H]1CN(c2ccc(-c3ccc(CNCc4cnn[nH]4)cc3)c(F)c2)C(=O)O1` [Radezolid, (5S)—N-[3-(2-Fluoro-4′-{[(1H-[1,2,3]triazol-4-ylmethyl)-amino]-methyl}-biphenyl-4-yl)-2-oxo-oxazolidin-5-ylmethyl]-acetamide], which “broth microdilution, fold more active than linezolid” value (P. granulosum [1]; P. granulosum) is on record?
Answer: Its value is 8 fold.

Question: What about the MIC (P. granulosum [1]; P. granulosum ATCC 25746) of the same molecule?
Answer: The MIC was 0.125 µg/mL (≈ 0.285 µM).

Question: And the solubility ([2]; 2,2,2-trifluoroethanol (TFE), organic solvent or mixture, thermodynamic from solid, 2,2,2-trifluoroethanol (TFE))?
Answer: The solubility was at least 54000 µg/mL.

Question: And the solubility ([2]; HFIPA/methanol (1:3 by volume), organic solvent or mixture, thermodynamic from solid, HFIPA/Methanol (1:3 by volume))?
Answer: The solubility was under 1000 µg/mL.

Question: And the solubility ([2]; acetone, organic solvent or mixture, thermodynamic from solid)?
Answer: The solubility was under 1000 µg/mL.

Question: What about the solubility ([2]; acetonitrile, organic solvent or mixture, thermodynamic from solid) of the same molecule?
Answer: Its solubility is under 1000 µg/mL.

Question: And the solubility ([2]; dichloromethane, organic solvent or mixture, thermodynamic from solid)?
Answer: Its solubility is under 1000 µg/mL.

Question: What about the solubility ([2]; ethyl acetate, organic solvent or mixture, thermodynamic from solid) of the same molecule?
Answer: Its solubility is under 1000 µg/mL.

Question: What about the solubility ([2]; ethyl ether, organic solvent or mixture, thermodynamic from solid) of the same molecule?
Answer: The solubility was under 1000 µg/mL.

Question: And the solubility ([2]; hexafluoroisopropanol (HFIPA), organic solvent or mixture, thermodynamic from solid)?
Answer: Its solubility is at least 245000 µg/mL.

Question: And the solubility ([2]; hexamethylphosphoramide, organic solvent or mixture, thermodynamic from solid, Hexamethyl-phosphoramide)?
Answer: The solubility was under 26000 µg/mL.

Question: And the solubility ([2]; methanol, organic solvent or mixture, thermodynamic from solid)?
Answer: The solubility was under 1000 µg/mL.

Question: And the solubility ([2]; tetrahydrofuran (THF), organic solvent or mixture, thermodynamic from solid)?
Answer: The solubility was under 1000 µg/mL.

Question: And the solubility ([2]; water, thermodynamic from solid)?
Answer: The solubility was under 1000 µg/mL.

Question: What about the MIC (Enterococcus faecium) of the same molecule?
Answer: The MIC was 0.5 µg/mL.

Question: What about the MIC (Enterococcus faecalis; ATCC29212, Enterococcus faecalis ATCC29212, phenotype QC) of the same molecule?
Answer: The MIC was 0.25 µg/mL (≈ 0.57 µM).

Question: And the MIC (Enterococcus faecalis; ATCC29212, Enterococcus faecalis ATCC29212-P5, Lin-R (G2576U))?
Answer: Its MIC is 1 µg/mL (≈ 2.28 µM).

Question: What about the MIC (Enterococcus faecalis; Enterococcus faecalis 1069, VanB) of the same molecule?
Answer: Its MIC is 0.25 µg/mL (≈ 0.57 µM).

Question: What about the MIC (Staphylococcus aureus; ATCC29213, Staphylococcus aureus ATCC29213, phenotype QC) of the same molecule?
Answer: Its MIC is 1 µg/mL (≈ 2.28 µM).

Question: And the MIC (Staphylococcus aureus; Staphylococcus aureus 01A1095, Mac-R)?
Answer: The MIC was 1 µg/mL (≈ 2.28 µM).

Question: What about the MIC (Staphylococcus aureus; Staphylococcus aureus A7820, Lin-R (G2576U) + Mac-R (ErmC)) of the same molecule?
Answer: Its MIC is 16 µg/mL.

Question: And the MIC (F. magna [3])?
Answer: Its MIC is 0.125 µg/mL (≈ 0.285 µM).

Question: And the MIC (B. thetaiotaomicron [4])?
Answer: Its MIC is over 8 µg/mL.

Question: What about the MIC (S. aureus) of the same molecule?
Answer: The MIC was 2 µg/mL (≈ 4.56 µM).

Question: And the survival ([5]; both, rat, in vivo)?
Answer: Its survival is 100%.

Question: What about the “Safety margin (Rat NOAEL AUC/Human efficacious AUC)” value ([5]; calculated from rat and human AUC 0-24) of the same molecule?
Answer: The value was 30.8x.

Question: What about the AUC(0-t) ([5]; male, rat, in vivo, 200 mg/kg) of the same molecule?
Answer: The AUC(0-t) was 102 µg·h/mL.

Question: And the “changes in hematology, coagulation, clinical chemistry, or urinalysis” value ([5]; rat, in vivo)?
Answer: The value was “No test article-related changes”.

Question: What about the “safety in long-term rat study” value ([5]; rat, in vivo) of the same molecule?
Answer: Its value is “good safety”.

Question: What about the intracellular killing (Legionella pneumophila) of the same molecule?
Answer: Its intracellular killing is “kills”.

Question: What about the intracellular killing (Listeria monocytogenes) of the same molecule?
Answer: The intracellular killing was “kills”.

Question: And the “agar dilution MIC, fold more potent than linezolid” value (P. granulosum [6]; P. granulosum)?
Answer: Its value is 8 fold.

Question: What about the MIC (P. granulosum [6]; P. granulosum ATCC 25746) of the same molecule?
Answer: The MIC was 0.25 µg/mL (≈ 0.57 µM).

Question: What about the MIC (P. acnes; ATCC11827, P. acnes ATCC 11827) of the same molecule?
Answer: Its MIC is 0.125 µg/mL (≈ 0.285 µM).

Question: What about the MIC (P. acnes; ATCC11828, P. acnes ATCC 11828) of the same molecule?
Answer: The MIC was 0.125 µg/mL (≈ 0.285 µM).

Question: And the MIC (P. acnes; ATCC29399, P. acnes ATCC 29399)?
Answer: Its MIC is 0.125 µg/mL (≈ 0.285 µM).

Question: What about the “agar dilution MIC, fold more potent than linezolid” value (P. acnes; P. acnes) of the same molecule?
Answer: The value was 4 fold.

Question: What about the MIC (B. thetaiotaomicron [7]) of the same molecule?
Answer: Its MIC is 8 µg/mL (≈ 18.2 µM).

Question: What about the solubility [8] of the same molecule?
Answer: The solubility was under 20 µg/mL.

Question: What about the MIC (B. fragilis) of the same molecule?
Answer: Its MIC is 4 µg/mL (≈ 9.12 µM).

Question: And the MIC (all organisms)?
Answer: The MIC was 0.06 to 1 µg/mL (≈ 0.137 to 2.28 µM).

Question: What about the “levels in granuloma pouch versus plasma over time” value [9] of the same molecule?
Answer: Its value is “remain high in granuloma pouch even as they decline in the plasma”.

Question: And the “fraction accumulating in the cytosol of cells” value ([10]; cytosol)?
Answer: The value was “Approximately 60%”.

Question: And the “fraction accumulating in the lysosome” value ([10]; lysosome)?
Answer: The value was “approximately 40%”.

Question: And the “accumulation in mammalian cells, extent greater than linezolid” value ([10]; relative to linezolid)?
Answer: Its value is 17 fold.

Question: And the “agar dilution MIC, fold more potent than linezolid” value (F. magna [11]; F. magna)?
Answer: The value was 4 fold.

Question: And the “difference between broth and agar dilution MICs” value (F. magna [11]; F. magna)?
Answer: The value was 4 fold.

Question: And the MIC (F. magna [11]; Finegoldia magna, ATCC15794, F. magna ATCC 15794)?
Answer: The MIC was 0.5 µg/mL (≈ 1.14 µM).

Question: And the “broth microdilution, fold more active than linezolid” value (G. vaginalis; G. vaginalis 49145)?
Answer: The value was 8 fold.

Question: What about the MIC (G. vaginalis; ATCC14018, G. vaginalis ATCC 14018) of the same molecule?
Answer: Its MIC is 0.125 µg/mL (≈ 0.285 µM).

Question: And the MIC (G. vaginalis; ATCC49145, G. vaginalis ATCC 49145)?
Answer: Its MIC is 0.06 µg/mL (≈ 0.137 µM).

From US10471046B2, “Method for treating, preventing, or reducing the risk of skin infection” (Melinta Subsidiary Corp., priority 2014, dated 2019)
